Data from PMC3029310 (Journal of Insect Science, 2010).

Test system: T1, AChE
T1 construct: gene ace1; native; newly emerged adult males for these rows
Assay: Ellman assay (DTNB, […] nm), […] substrate concentrations […]
Format: biochemical, Blattella germanica
Conditions: newly emerged adult males; pH 7.5; 30 °C

CC(=O)SCC[N+](C)(C)C [Acetylthiocholine iodide]
Km: 340 ± 49 µM
